Measured values published in PubChem BioAssay AID330 (DTP/NCI, 2004).
“And” between values parts separate entries of the source, which are not always exact repeats. Equal values may be shown once. Inconclusive results and toxic doses are left out. Rule for the calls: active = survival T/C of 150% or more; inactive = T/C below 125% in these data.

Test system: P388 leukemia ip, CD2F1 mice, survival T/C
Assay: NCI In Vivo Anticancer Drug Screen. Data for tumor model P388 Leukemia (intraperitoneal) in CD2F1 (CDF1) mice
Conditions: endpoint: median survival time, higher = longer survival
In short: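 Mice carrying the transplanted tumor received test compound or vehicle. Survival was recorded in each group, and the value is the treated-group measurement divided by that of the vehicle-treated control group.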

[1] = dose: 100.0 mg/kg/injection, schedule: Q04DX003 (ip), vehicle: Klucel (hydroxypropylcellulose) (HPC)
[2] = dose: 12.5 mg/kg/injection, schedule: Q01DX009 (ip), vehicle: saline with Tween-80
[3] = dose: 25.0 mg/kg/injection, schedule: Q01DX009 (ip), vehicle: saline with Tween-80
[4] = dose: 50.0 mg/kg/injection, schedule: Q01DX009 (ip), vehicle: saline with Tween-80
[5] = dose: 100.0 mg/kg/injection, schedule: Q01DX009 (ip), vehicle: saline with Tween-80
[6] = dose: 200.0 mg/kg/injection, schedule: Q01DX009 (ip), vehicle: saline with Tween-80
[7] = dose: 50.0 mg/kg/injection, schedule: Q01DX005 (ip), vehicle: Klucel (hydroxypropylcellulose) (HPC)
[8] = dose: 100.0 mg/kg/injection, schedule: Q01DX005 (ip), vehicle: Klucel (hydroxypropylcellulose) (HPC)
[9] = dose: 200.0 mg/kg/injection, schedule: Q01DX005 (ip), vehicle: Klucel (hydroxypropylcellulose) (HPC)
[10] = dose: 60.0 mg/kg/injection, schedule: Q01DX005 (ip), vehicle: saline with Tween-80
[11] = dose: 120.0 mg/kg/injection, schedule: Q01DX005 (ip), vehicle: saline with Tween-80
[12] = dose: 240.0 mg/kg/injection, schedule: Q01DX005 (ip), vehicle: saline with Tween-80
[13] = dose: 50.0 mg/kg/injection, schedule: Q01DX005 (ip), vehicle: saline with Tween-80
[14] = dose: 100.0 mg/kg/injection, schedule: Q01DX005 (ip), vehicle: saline with Tween-80
[15] = dose: 200.0 mg/kg/injection, schedule: Q01DX005 (ip), vehicle: saline with Tween-80
[16] = dose: 50.0 mg/kg/injection, schedule: Q01DX009 (ip), vehicle: Klucel (hydroxypropylcellulose) (HPC)
[17] = dose: 100.0 mg/kg/injection, schedule: Q01DX009 (ip), vehicle: Klucel (hydroxypropylcellulose) (HPC)

Measured: T/C

CC(Cl)C(=O)N(C)c1ccccc1 (configuration not stated)
inactive: [1] 96 % of control | dose: 200.0 mg/kg/injection, schedule: Q04DX003 (ip), vehicle: Klucel (hydroxypropylcellulose) (HPC) 92 % of control

CCCCCOC(=O)c1ccc(O)cc1
inactive: [2] 108 % of control | [3] 100 % of control | [4] 99 % of control and 100 % of control | [5] 94 % of control

Cc1cc(C)c2c(=O)n(C)c(=O)n(C)c2n1
inactive: [4] 89 % of control | [5] 94 % of control | [6] 103 % of control

Cc1nn(-c2ccccc2)c([O-])c1[N+]#N
inactive: dose: 100.0 mg/kg/injection, schedule: Q04DX002 (ip), vehicle: Klucel (hydroxypropylcellulose) (HPC) 102 % of control | dose: 200.0 mg/kg/injection, schedule: Q04DX002 (ip), vehicle: Klucel (hydroxypropylcellulose) (HPC) 102 % of control | dose: 400.0 mg/kg/injection, schedule: Q04DX002 (ip), vehicle: Klucel (hydroxypropylcellulose) (HPC) 100 % of control

O=C1Oc2ccccc2C(=O)C1=S1CCCC1
inactive: [7] 98 % of control | [8] 91 % of control | [9] 94 % of control

C=CCC(C(=O)O)C1(C(=O)O)CCCCCC1 (configuration not stated)
inactive: dose: 100.0 mg/kg/injection, schedule: Q04DX002 (ip), vehicle: saline with Tween-80 94 % of control | dose: 200.0 mg/kg/injection, schedule: Q04DX002 (ip), vehicle: saline with Tween-80 93 % of control | dose: 400.0 mg/kg/injection, schedule: Q04DX002 (ip), vehicle: saline with Tween-80 92 % of control

COc1ccc(C(c2cc3c(cc2O)OCO3)n2ccnc2)cc1 (configuration not stated)
inactive: [10] 99 % of control | [11] 99 % of control | [12] 96 % of control

CC(=O)Oc1ccc(OC(C)=O)c2c(OC(C)=O)c(C(CC=C(C)C)OC(C)=O)cc(OC(C)=O)c12 (configuration not stated)
inactive: dose: 12.5 mg/kg/injection, schedule: Q04DX002 (ip), vehicle: saline with Tween-80 108 % of control | dose: 25.0 mg/kg/injection, schedule: Q04DX002 (ip), vehicle: saline with Tween-80 117 % of control

Cc1ccc(S(=O)(=O)NC(=O)/N=C2\NC(=O)CS2)cc1
inactive: [13] 100 % of control | [14] 103 % of control | [15] 91 % of control

NC(=Nc1ccc(S(=O)(=O)Nc2cnc3ccccc3n2)cc1)/N=C(/N)Nc1ccc(Br)cc1
inactive: [13] 99 % of control | [14] 100 % of control | [15] 99 % of control

CNC(=O)OCc1cc(C)cc(C)c1-c1ccco1
inactive: [4] 101 % of control | [5] 98 % of control | [6] 95 % of control

CCCCCCCCCCCCN1C(=O)[N+](C)(C)N=C1[O-]
inactive: dose: 100.0 mg/kg/injection, schedule: Q04DX003 (ip), vehicle: saline 113 % of control | dose: 200.0 mg/kg/injection, schedule: Q04DX003 (ip), vehicle: saline 105 % of control | dose: 400.0 mg/kg/injection, schedule: Q04DX003 (ip), vehicle: saline 105 % of control

O=S1(=O)CC(N2CCOCC2)C2=C(O1)c1sc(-c3ccccc3)nc1CC2 (configuration not stated)
inactive: [7] 104 % of control | [8] 105 % of control | [9] 98 % of control

CN(C)/C=C1\C(=O)O[C@H]2CCC[C@@]12C
inactive: dose: 100.0 mg/kg/injection, schedule: Q01DX001 (ip), vehicle: saline with Tween-80 107 % of control | dose: 200.0 mg/kg/injection, schedule: Q01DX001 (ip), vehicle: saline with Tween-80 106 % of control

Cc1onc(-c2c(Cl)cccc2Cl)c1C(=O)OCCOc1ccc(C(F)(F)F)cc1[N+](=O)[O-]
inactive: [10] 91 % of control | [11] 98 % of control | [12] 92 % of control

CC(=O)Nc1ccc(S(=O)(=O)N/N=c2/sc3ccccc3n2C)cc1
inactive: [10] 100 % of control | [11] 92 % of control | [12] 95 % of control

CCOc1ccc(NC(=O)c2c(N)n(C)c(=O)n(C)c2=O)cc1
inactive: [16] 88 % of control | [17] 93 % of control

Nc1[nH]c(=O)ncc1C(=O)NC(CO)C(=O)O (configuration not stated)
inactive: dose: 6.25 mg/kg/injection, schedule: Q01DX009 (ip), vehicle: saline with Tween-80 90 % of control | [2] 100 % of control | [3] 95 % of control

CCc1ccc2ccc3ccc(CC)nc3c2n1
inactive: [10] 106 % of control | [11] 102 % of control | [12] 99 % of control

COC(=O)C1=C(C)NC(C)=C(C(=O)OC)C1c1cc2ccccc2nc1Cl
inactive: [13] 92 % of control | [14] 88 % of control | [15] 92 % of control

COc1ccc(C(=O)CC(=O)C(=O)Nc2ccc(Cl)cc2)cc1
inactive: [13] 103 % of control | [14] 101 % of control | [15] 109 % of control

[Cl][Sn]([Cl])([c]1ccccc1)[c]1ccccc1.c1ccc2nc(-c3ccc4ccccc4n3)ccc2c1
inactive: dose: 7.5 mg/kg/injection, schedule: Q01DX005 (ip), vehicle: Klucel (hydroxypropylcellulose) (HPC) 100 % of control and 106 % of control | dose: 15.0 mg/kg/injection, schedule: Q01DX005 (ip), vehicle: Klucel (hydroxypropylcellulose) (HPC) 100 % of control and 113 % of control | dose: 30.0 mg/kg/injection, schedule: Q01DX005 (ip), vehicle: Klucel (hydroxypropylcellulose) (HPC) 104 % of control and 117 % of control

O=[N+]([O-])c1c(Nc2ccccc2)ncnc1Nc1ccccc1
inactive: dose: 100.0 mg/kg/injection, schedule: Q04DX003 (ip), vehicle: saline with Tween-80 105 % of control | dose: 200.0 mg/kg/injection, schedule: Q04DX003 (ip), vehicle: saline with Tween-80 106 % of control | dose: 400.0 mg/kg/injection, schedule: Q04DX003 (ip), vehicle: saline with Tween-80 100 % of control

CC1=C(C)C(=O)O[C@@H]([C@](C)(O)[C@]2(O)CC[C@@]3(O)[C@@H]4C[C@H](O)[C@]5(O)[C@@H](O)C=CC(=O)[C@]5(C)[C@H]4CC[C@]23C)C1
inactive: dose: 4.0 mg/kg/injection, schedule: Q01DX005 (ip), vehicle: distilled water + Tween-80 100 % of control | dose: 8.0 mg/kg/injection, schedule: Q01DX005 (ip), vehicle: distilled water + Tween-80 102 % of control | dose: 16.0 mg/kg/injection, schedule: Q01DX005 (ip), vehicle: distilled water + Tween-80 107 % of control | dose: 32.0 mg/kg/injection, schedule: Q01DX005 (ip), vehicle: distilled water + Tween-80 106 % of control and 112 % of control | dose: 64.0 mg/kg/injection, schedule: Q01DX005 (ip), vehicle: distilled water + Tween-80 99 % of control and 107 % of control | dose: 128.0 mg/kg/injection, schedule: Q01DX005 (ip), vehicle: distilled water + Tween-80 99 % of control

CCOC(=O)C(NC(C)=O)(C(=O)OCC)C(C)C(O)c1ccc(OC)c(OC)c1O (configuration not stated)
inactive: [16] 108 % of control | [17] 103 % of control | dose: 200.0 mg/kg/injection, schedule: Q01DX009 (ip), vehicle: Klucel (hydroxypropylcellulose) (HPC) 109 % of control | dose: 400.0 mg/kg/injection, schedule: Q01DX009 (ip), vehicle: Klucel (hydroxypropylcellulose) (HPC) 93 % of control

COC1C=C(Cl)C(=O)C(C)O1 (configuration not stated)
inactive: dose: 25.0 mg/kg/injection, schedule: Q04DX003 (ip), vehicle: Klucel (hydroxypropylcellulose) (HPC) 100 % of control | dose: 50.0 mg/kg/injection, schedule: Q04DX003 (ip), vehicle: Klucel (hydroxypropylcellulose) (HPC) 106 % of control | [1] 100 % of control

CSc1nc(Cl)cc(N2CC2)n1
inactive: dose: 0.5 mg/kg/injection, schedule: Q04DX003 (ip), vehicle: saline 110 % of control | dose: 1.0 mg/kg/injection, schedule: Q04DX003 (ip), vehicle: saline 100 % of control | dose: 2.0 mg/kg/injection, schedule: Q04DX003 (ip), vehicle: saline 100 % of control
